Measured values reported in ChEMBL document CHEMBL6134848, “Deuteration Strategy-Inspired Design of Novel Diarylpyrimidine Derivatives as Potent Non-Nucleoside Reverse Transcriptase Inhibitors Featuring Improved Efficacy, Selectivity, and Druggability” (J Med Chem, 2025).

Assays:
[1] = tested on: Human immunodeficiency virus 1; test: Antiviral activity against drug-resistant HIV-1 harboring RT Y188L mutant infected in human MT4 cells assessed as protection against virus-induced cytopathicity measured after 5 days post-infection by MTT assay; format: functional, organism-based; conditions: Human immunodeficiency virus 1, MT4, 120 h
[2] = tested on: Human immunodeficiency virus 1; test: Antiviral activity against drug-resistant HIV-1 harboring RT K103N mutant infected in human MT4 cells assessed as protection against virus-induced cytopathicity measured after 5 days post-infection by MTT assay; format: functional, organism-based; conditions: Human immunodeficiency virus 1, MT4, 120 h
[3] = Selectivity index, ratio of CC50 for cytotoxicity against human MT4 cells to EC50 for antiviral activity against wild-type HIV-1 IIIB infected in human MT4 cells; format: toxicity, cell-based; conditions: read-out: Ratio CC50/EC50
[4] = target: Human immunodeficiency virus type 1 reverse transcriptase (Human immunodeficiency virus 1, UniProt Q72547); test: Inhibition of recombinant wild type HIV-1 reverse transcriptase incubated for 40 mins in presence of poly(rA) template/oligo(dT)16 primer by Pico-Green dye based analysis
[5] = tested on: Human immunodeficiency virus 1; test: Antiviral activity against drug-resistant HIV-1 harboring RT F227L/V106A mutant infected in human MT4 cells assessed as protection against virus-induced cytopathicity measured after 5 days post-infection by MTT assay; format: functional, organism-based; conditions: Human immunodeficiency virus 1, MT4, 120 h
[6] = tested on: Human immunodeficiency virus 1; test: Antiviral activity against drug-resistant HIV-1 harboring RT Y181C mutant infected in human MT4 cells assessed as protection against virus-induced cytopathicity measured after 5 days post-infection by MTT assay; format: functional, organism-based; conditions: Human immunodeficiency virus 1, MT4, 120 h
[7] = tested on: Human immunodeficiency virus 1; test: Antiviral activity against wild-type HIV-1 IIIB infected in human MT4 cells assessed as protection against virus-induced cytopathicity measured after 5 days post-infection by MTT assay; format: functional, organism-based; conditions: Human immunodeficiency virus 1, IIIB, MT4, 120 h
[8] = tested on: Human immunodeficiency virus 1; test: Antiviral activity against drug-resistant HIV-1 harboring RT E138K mutant infected in human MT4 cells assessed as protection against virus-induced cytopathicity measured after 5 days post-infection by MTT assay; format: functional, organism-based; conditions: Human immunodeficiency virus 1, MT4, 120 h
[9] = tested on: Human immunodeficiency virus 1; test: Antiviral activity against drug-resistant HIV-1 harboring RT L100I mutant infected in human MT4 cells assessed as protection against virus-induced cytopathicity measured after 5 days post-infection by MTT assay; format: functional, organism-based; conditions: Human immunodeficiency virus 1, MT4, 120 h
[10] = tested on: Human immunodeficiency virus 1; test: Antiviral activity against drug-resistant HIV-1 harboring RT RES056 mutant infected in human MT4 cells assessed as protection against virus-induced cytopathicity measured after 5 days post-infection by MTT assay; format: functional, organism-based; conditions: Human immunodeficiency virus 1, MT4, 120 h
[11] = Cytotoxicity against human MT4 cells assessed as reduction in cell viability by MTT assay; format: toxicity, cell-based
[12] = Metabolic stability in human liver microsomes assessed as half life at 1 uM measured up to 45 mins by LC/MS/MS analysis; format: ADME, Microsome; conditions: liver microsomes
[13] = Stability in human plasma assessed as compound remaining at 1 uM measured after 3 hrs by LC-MS/MS analysis; format: ADME, cell-free; conditions: read-out: Stability
[14] = Stability in human plasma assessed as compound remaining at 1 uM measured immediately by LC-MS/MS analysis; format: ADME, cell-free; conditions: read-out: Stability

remaining at 3 h, 1 µM [13]	remaining at 0 h, 1 µM [14]	SMILES	EC50 [1]	EC50 [2]	selectivity ratio [3]	IC50 [4]	EC50 [5]	EC50 [6]	EC50 [7]	EC50 [8]	EC50 [9]	EC50 [10]	CC50 [11]	half-life at 1 µM [12]
–	–	[2H]C([2H])([2H])c1cc(C#N)cc(C([2H])([2H])[2H])c1Oc1nc(NC2CCN(Cc3ccc(S(N)(=O)=O)cc3)CC2)nc2ccccc12	150 nM	8.7 nM	4440	230 nM	59.8 nM	50.7 nM	5.47 nM	37.4 nM	16.8 nM	276 nM	24300 nM	–
–	–	[2H]C([2H])([2H])c1cc(C#N)cc(C)c1Oc1nc(NC2CCN(Cc3ccc(C(N)=O)cc3)CC2)nc2ccsc12	59.9 nM	11.2 nM	> 18900	150 nM	65.2 nM	65.3 nM	12.8 nM	53.5 nM	68.2 nM	887 nM	> 242000 nM	–
–	–	[2H]C([2H])([2H])c1cc(C#N)cc(C)c1Oc1nc(NC2CCN(Cc3ccc(S(N)(=O)=O)cc3)CC2)nc2ccsc12	12 nM	3.67 nM	31200	190 nM	9.97 nM	12.1 nM	5.77 nM	12.6 nM	8.56 nM	217 nM	178000 nM	–
–	–	[2H]C([2H])([2H])c1cc(C#N)cc(C([2H])([2H])[2H])c1Oc1nc(NC2CCN(Cc3ccc(C(N)=O)cc3)CC2)nc2scnc12	52.1 nM	2.79 nM	9130	160 nM	161 nM	11.6 nM	2.36 nM	11.3 nM	12.8 nM	166 nM	21500 nM	–
–	–	[2H]C([2H])([2H])c1cc(C#N)cc(C)c1Oc1nc(NC2CCN(Cc3ccc(C(N)=O)cc3)CC2)nc2ccccc12	67.8 nM	4.86 nM	27900	210 nM	1270 nM	47 nM	5.4 nM	63.1 nM	14.5 nM	1810 nM	150000 nM	–
–	–	Cc1cc(-c2ccc(C#N)cc2)cc(C)c1Nc1ccnc(Nc2ccc(C#N)cc2)n1	40.5 nM	2.88 nM	3280	340 nM	796 nM	7.26 nM	1.86 nM	8.16 nM	4.02 nM	54.3 nM	6110 nM	–
–	–	[2H]C([2H])([2H])c1cc(C#N)cc(C)c1Oc1nc(NC2CCN(Cc3ccc(S(N)(=O)=O)cc3)CC2)nc2ccccc12	54.2 nM	6.92 nM	> 74600	210 nM	44.3 nM	12.9 nM	3.07 nM	10.6 nM	8.11 nM	245 nM	> 229000 nM	–
–	–	[2H]C([2H])([2H])c1cc(C#N)cc(C)c1Oc1nc(NC2CCN(Cc3ccc(C(N)=O)cc3)CC2)nc2scnc12	52.9 nM	4.31 nM	10800	170 nM	103 nM	10.4 nM	2.03 nM	10.4 nM	13.3 nM	143 nM	22000 nM	–
–	–	O=C1Nc2ccc(Cl)cc2[C@@](C#CC2CC2)(C(F)(F)F)O1 [EFAVIRENZ]	–	99.2 nM	–	–	203 nM	–	–	8.32 nM	41.8 nM	–	> 6340 nM	–
–	–	[2H]C([2H])([2H])c1cc(/C=C/C#N)cc(C)c1Nc1ccnc(Nc2ccc(C#N)cc2)n1	72.6 nM	1.96 nM	–	30 nM	69.8 nM	2.71 nM	1.17 nM	4.6 nM	2.3 nM	12.9 nM	6560 nM	19.4 min
–	–	[2H]C([2H])([2H])c1cc(C#N)cc(C([2H])([2H])[2H])c1Oc1nc(NC2CCN(Cc3ccc(S(N)(=O)=O)cc3)CC2)nc2sccc12	10.4 nM	4.28 nM	> 34500	160 nM	8.79 nM	11.2 nM	6.53 nM	19.5 nM	6.44 nM	141 nM	> 225000 nM	–
–	–	[2H]C([2H])([2H])c1cc(C#N)cc(C([2H])([2H])[2H])c1Oc1nc(NC2CCN(Cc3ccc(C(N)=O)cc3)CC2)nc2sccc12	61.6 nM	4.58 nM	> 57500	140 nM	724 nM	53.8 nM	4.19 nM	62.3 nM	21.6 nM	496 nM	> 241000 nM	–
–	–	[2H]C([2H])([2H])c1cc(C#N)cc(C([2H])([2H])[2H])c1Oc1nc(NC2CCN(Cc3ccc(C(N)=O)cc3)CC2)nc2ccsc12	57.6 nM	6.75 nM	> 47200	140 nM	78.2 nM	46.8 nM	5.11 nM	59.8 nM	44.3 nM	1740 nM	> 241000 nM	–
–	–	[2H]C([2H])([2H])c1cc(/C=C/C#N)cc(C([2H])([2H])[2H])c1Nc1ccnc(Nc2ccc(C#N)cc2)n1	–	1.81 nM	–	20 nM	76.2 nM	2.75 nM	1.41 nM	5.84 nM	2.42 nM	13.2 nM	6590 nM	22.8 min
33.3%	100%	CC[C@H](C)C(=O)O[C@H]1C[C@@H](C)C=C2C=C[C@H](C)[C@H](CC[C@@H]3C[C@@H](O)CC(=O)O3)[C@H]21 [LOVASTATIN]	–	–	–	–	–	–	–	–	–	–	–	–
–	–	[2H]C([2H])([2H])c1cc(C#N)cc(C([2H])([2H])[2H])c1Oc1nc(NC2CCN(Cc3ccc(S(N)(=O)=O)cc3)CC2)nc2scnc12	46 nM	2.2 nM	8290	190 nM	46.4 nM	8.05 nM	2.16 nM	10.3 nM	10.8 nM	86.4 nM	17900 nM	–
–	–	[2H]C([2H])([2H])c1cc(C#N)cc(C)c1Oc1nc(NC2CCN(Cc3ccc(C(N)=O)cc3)CC2)nc2sccc12	94.5 nM	18.1 nM	> 27200	120 nM	71.5 nM	47.6 nM	8.92 nM	63.5 nM	29.2 nM	320 nM	> 242000 nM	–
–	–	Cc1ccnc2c1NC(=O)c1cccnc1N2C1CC1 [NEVIRAPINE]	> 15000 nM	4710 nM	–	–	7320 nM	–	253 nM	237 nM	1270 nM	> 15000 nM	> 15000 nM	–
–	–	[2H]C([2H])([2H])c1cc(-c2ccc(C#N)cc2)cc(C([2H])([2H])[2H])c1Nc1ccnc(Nc2ccc(C#N)cc2)n1	55.1 nM	2.9 nM	3260	380 nM	697 nM	7.57 nM	1.83 nM	8.93 nM	2.72 nM	68.8 nM	5980 nM	16.7 min
–	–	[2H]C([2H])([2H])c1cc(C#N)cc(C([2H])([2H])[2H])c1Oc1nc(NC2CCN(Cc3ccc(C(N)=O)cc3)CC2)nc2ccccc12	60.7 nM	23.6 nM	12300	210 nM	186 nM	61.8 nM	7.31 nM	38.1 nM	32.9 nM	1390 nM	90200 nM	–
–	–	[2H]C([2H])([2H])c1cc(C#N)cc(C)c1Oc1nc(NC2CCN(Cc3ccc(S(N)(=O)=O)cc3)CC2)nc2scnc12	45.5 nM	4.39 nM	5320	150 nM	181 nM	10.1 nM	2.8 nM	28.1 nM	10.9 nM	57.6 nM	14900 nM	–
–	–	[2H]C([2H])([2H])c1cc(C#N)cc(C)c1Oc1nc(NC2CCN(Cc3ccc(S(N)(=O)=O)cc3)CC2)nc2sccc12	55.5 nM	8.84 nM	> 35500	160 nM	428 nM	21.2 nM	6.39 nM	49.7 nM	17.4 nM	148 nM	> 227000 nM	–
–	–	[2H]C([2H])([2H])c1cc(-c2ccc(C#N)cc2)cc(C)c1Nc1ccnc(Nc2ccc(C#N)cc2)n1	57.5 nM	3.81 nM	2370	380 nM	626 nM	6.14 nM	2.5 nM	8.64 nM	2.74 nM	58.6 nM	5940 nM	16.6 min
